Laboratory results published in patent US12252524B2, “GIP/GLP1 co-agonist compounds” (Eli Lilly and Company, priority 2018, dated 2025).
Numbered stars: 1 amine (or outer) side, 2 acyl side, 3 side chain; on linkers, the order of the positions; unused ones are H or OH. Square brackets hold non-standard residues; d marks the D form. Side chains are listed from the residue outwards. Peptide text beside a SMILES is read from it. * marks the point of attachment. C20 diacid = O=C(O)CCCCCCCCCCCCCCCCCCC(=O)*; αMePhe(2-F) = C[C@](N)(Cc1ccccc1F)C(=O)O; γGlu = O=C(O)[C@H](CCC(=O)[*:2])N[*:1]; αMeY = C[C@](N)(Cc1ccc(O)cc1)C(=O)O; αMeF = C[C@](N)(Cc1ccccc1)C(=O)O; 4Pal = N[C@@H](Cc1ccncc1)C(=O)O; αMeL = CC(C)C[C@](C)(N)C(=O)O; Orn = NCCC[C@H](N)C(=O)O; AEEA = NCCOCCOCC(=O)O; Aib = CC(C)(N)C(=O)O

Assays:
[1] = target: T1, human Gcg receptor (Homo sapiens, UniProt P47871); experiment: [125I]-Glucagon binding (SPA), human Gcg receptor; details: read-out: hGLcgR Ki, nM (SEM, n)
T1 construct: expressed in transfected cells; crude membranes
Procedure: (§1) Two methods are used for the preparation of crude cell membranes.
(§2) Method 1: Frozen cell pellets are lysed on ice in hypotonic buffer containing 50 mM Tris HCl, pH 7.5, and Roche Complete™ Protease Inhibitors with EDTA. The cell suspension is disrupted using a glass Potter-Elvehjem homogenizer fitted with a Teflon® pestle for 25 strokes. The homogenate is centrifuged at 4° C. at 1100×g for 10 minutes. The supernatant is collected and stored on ice while the pellets are resuspended in homogenization buffer and rehomogenized as described above. The homogenate is centrifuged at 1100×g for 10 minutes. The second supernatant is combined with the first supernatant and centrifuged at 35000×g for 1 hour at 4° C. The resulting membrane pellet is resuspended in homogenization buffer containing protease inhibitors at approximately 1 to 3 mg/mL, quick frozen in liquid nitrogen and stored as aliquots in a−80° C. freezer until use.
(§3) Method 2: Frozen cell pellets are lysed on ice in hypotonic buffer containing 50 mM Tris HCl, pH 7.5, 1 mM MgCl2, Roche Complete™ EDTA-free Protease Inhibitors and 25 units/ml DNAse I (Invitrogen). The cell suspension is disrupted using a glass Potter-Elvehjem homogenizer fitted with a Teflon® pestle for 20 to 25 strokes. The homogenate is centrifuged at 4° C. at 1800×g for 15 minutes. The supernatant is collected and stored on ice while the pellets are resuspended in homogenization buffer (without DNAse I) and rehomogenized as described above. The homogenate is centrifuged at 1800×g for 15 minutes. The second supernatant is combined with the first supernatant and centrifuged an additional time at 1800×g for 15 minutes. The overall supernatant is then centrifuged at 25000×g for 30 minutes at 4° C. The resulting membrane pellet is resuspended in homogenization buffer (without DNAse I) containing protease inhibitors at approximately 1 to 3 mg/mL and stored as aliquots in a−80° C. freezer until use.
The human Gcg receptor binding assays are performed using a Scintillation Proximity Assay (SPA) format with wheat germ agglutinin (WGA) beads (Perkin Elmer). The binding buffer contains 25 mM 4-(2-hydroxyethyl)-1-piperazineethanesulfonic acid (HEPES), pH 7.4, 2.5 mM CaCl2, 1 mM MgCl2, 0.1% (w/v) bacitracin (Research Products), 0.003% (w/v) Polyoxyethylenesorbitan monolaurate (TWEEN©-20), and Roche Complete™ Protease Inhibitors without EDTA. […] Plates are sealed and mixed on a plate shaker (setting 6) for 1 minute and read with a PerkinElmer Trilux MicroBeta© scintillation counter after 12 hours of incubation/settling time at room temperature.
(§4) Data are analyzed using four-parameter (curve maximum, curve minimum, IC50, Hill slope) nonlinear regression routines (Genedata Screener, version 12.0.4, Genedata AG, Basal, Switzerland). […] Values for Ki are reported as the geometric mean, with error expressed as the standard error of the mean (SEM) and n is equal to the number of independent replicates (determined in assays performed on different days). […] The Ki Ratio is a rapid indication of the apparent affinity of a peptide compared to the native control peptide. […] SEM is only calculated when n=2 or greater non-qualified results exist. Means are expressed as GeoMetric means with the standard error of the mean (SEM) and the number of replicates (n) indicated in parenthesis.

[2] = target: T2, human GIP receptor (Homo sapiens, UniProt P48546); experiment: [125I]-GIP binding (SPA), human GIP receptor; details: read-out: hGIPR Ki, nM (SEM, n)
T2 construct: expressed in transfected cells; crude membranes
T2 sequence (P48546 22-466): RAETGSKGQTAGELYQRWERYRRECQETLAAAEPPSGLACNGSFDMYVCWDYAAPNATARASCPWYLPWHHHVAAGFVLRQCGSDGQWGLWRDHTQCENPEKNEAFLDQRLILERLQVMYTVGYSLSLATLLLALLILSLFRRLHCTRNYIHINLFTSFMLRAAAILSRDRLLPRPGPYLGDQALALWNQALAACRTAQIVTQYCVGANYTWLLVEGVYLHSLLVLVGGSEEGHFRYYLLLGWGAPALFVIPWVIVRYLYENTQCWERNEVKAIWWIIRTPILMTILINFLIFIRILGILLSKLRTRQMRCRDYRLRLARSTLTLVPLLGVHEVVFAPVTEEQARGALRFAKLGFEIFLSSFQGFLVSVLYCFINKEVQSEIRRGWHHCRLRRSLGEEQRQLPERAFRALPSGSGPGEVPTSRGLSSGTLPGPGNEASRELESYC
Procedure: as §1, §2, §3
The binding buffer contains 25 mM HEPES, pH 7.4, 2.5 mM CaCl2, 1 mM MgCl2, 0.1% (w/v) bacitracin, 0.003% (w/v) TWEEN©-20, and Roche Complete™ Protease Inhibitors without EDTA. Peptides and GIP are thawed and 3 fold serially diluted in 100% DMSO (10 point concentration response curves). […] Plates are sealed and mixed on a plate shaker (setting 6) for 1 minute and read with a PerkinElmer Trilux MicroBeta© scintillation counter after 2.5 to 12 hours of incubation/settling time at room temperature.
as §4

[3] = target: human GLP-1 receptor (GLP-1R) (Homo sapiens, UniProt P43220); experiment: cAMP pharmacological functional assay in presence of casein, hGLP-1R; format: cell-based; details: HEK293 cells expressing hGLP-1R, 0.1% Casein, geometric mean; read-out: hGLP1R cAMP Rel EC50 nM (SEM, n)
[4] = target: T3, gastric inhibitory peptide receptor (GIPR) (Homo sapiens, UniProt P48546); experiment: cAMP pharmacological functional assay in presence of casein, hGIPR; format: cell-based; details: HEK293 cells expressing hGIPR, 0.1% Casein, geometric mean; read-out: hGIPR cAMP Rel EC50 nM (SEM, n)
T3 sequence (P48546 22-466): T2 sequence (P48546 22-466)

Sequence of human GLP-1 receptor (GLP-1R) (P43220 24-463): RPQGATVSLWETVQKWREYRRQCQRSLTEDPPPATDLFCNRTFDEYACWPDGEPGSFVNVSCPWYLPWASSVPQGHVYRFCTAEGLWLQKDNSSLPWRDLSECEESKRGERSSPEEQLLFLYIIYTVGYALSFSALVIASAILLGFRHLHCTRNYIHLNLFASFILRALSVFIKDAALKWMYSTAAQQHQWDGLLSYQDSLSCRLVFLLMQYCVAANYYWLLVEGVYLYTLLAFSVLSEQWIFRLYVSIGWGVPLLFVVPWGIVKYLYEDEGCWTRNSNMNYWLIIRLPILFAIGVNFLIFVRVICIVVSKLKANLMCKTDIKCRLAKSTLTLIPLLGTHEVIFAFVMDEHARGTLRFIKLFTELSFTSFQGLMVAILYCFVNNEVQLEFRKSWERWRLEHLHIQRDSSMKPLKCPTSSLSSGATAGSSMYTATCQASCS
T1 sequence (P47871 26-477): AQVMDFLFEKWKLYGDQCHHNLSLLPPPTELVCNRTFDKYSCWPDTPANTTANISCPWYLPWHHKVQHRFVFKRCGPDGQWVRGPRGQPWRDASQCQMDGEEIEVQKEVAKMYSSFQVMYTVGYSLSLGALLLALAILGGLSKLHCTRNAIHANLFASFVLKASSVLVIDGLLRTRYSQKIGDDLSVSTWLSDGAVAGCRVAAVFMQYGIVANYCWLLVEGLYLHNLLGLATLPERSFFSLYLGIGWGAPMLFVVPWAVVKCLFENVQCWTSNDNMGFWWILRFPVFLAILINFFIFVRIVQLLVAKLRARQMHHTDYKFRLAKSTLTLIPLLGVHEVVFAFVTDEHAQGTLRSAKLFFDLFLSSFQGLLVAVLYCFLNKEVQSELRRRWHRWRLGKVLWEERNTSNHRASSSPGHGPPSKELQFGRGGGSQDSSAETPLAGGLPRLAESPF

CC[C@H](C)[C@H](NC(=O)[C@H](CC(C)C)NC(=O)[C@H](Cc1ccc(O)cc1)NC(=O)[C@H](CCC(=O)O)NC(=O)[C@@H](NC(=O)[C@H](Cc1ccccc1)NC(=O)[C@@H](NC(=O)C(C)(C)NC(=O)[C@H](CCC(N)=O)NC(=O)[C@H](C)NC(=O)[C@H](CCCCNC(=O)COCCOCCNC(=O)COCCOCCNC(=O)CC[C@H](NC(=O)CCCCCCCCCCCCCCCCCCC(=O)O)C(=O)O)NC(=O)[C@H](CCCCN)NC(=O)[C@H](CC(=O)O)NC(=O)[C@H](CC(C)C)NC(=O)[C@](C)(CC(C)C)NC(=O)[C@@H](NC(=O)[C@H](CO)NC(=O)[C@H](Cc1ccc(O)cc1)NC(=O)[C@H](CC(=O)O)NC(=O)[C@H](CO)NC(=O)[C@@H](NC(=O)[C@](C)(Cc1ccccc1)NC(=O)[C@@H](NC(=O)CNC(=O)[C@H](CCC(=O)O)NC(=O)C(C)(C)NC(=O)[C@@H](N)Cc1ccc(O)cc1)[C@@H](C)O)[C@@H](C)O)[C@@H](C)CC)[C@@H](C)O)[C@@H](C)CC)C(=O)N[C@@H](CCC(=O)O)C(=O)NCC(=O)NCC(=O)N1CCC[C@H]1C(=O)N[C@@H](CO)C(=O)N[C@@H](CO)C(=O)NCC(=O)N[C@@H](C)C(=O)N1CCC[C@H]1C(=O)N1CCC[C@H]1C(=O)N1CCC[C@H]1C(=O)N[C@@H](CO)C(N)=O [Example 139] (H-Y[Aib]EGT[αMeF]TSDYSI[αMeL]LDKK([AEEA-AEEA-γGlu-C20 diacid])AQ[Aib]TFIEYLIEGGPSSGAPPPS-NH2)
Ki [1]: 105 nM | Ki [2]: 0.036 nM | EC50 [3]: 0.0417 nM | EC50 [4]: 0.037 nM

CC[C@H](C)[C@H](NC(=O)[C@H](CC(C)C)NC(=O)[C@](C)(Cc1ccc(O)cc1)NC(=O)[C@@H](CCC(=O)O)NC(=O)[C@@H](NC(=O)[C@H](Cc1ccccc1)NC(=O)[C@H](CCC(=O)O)NC(=O)C(C)(C)NC(=O)[C@H](CCC(N)=O)NC(=O)[C@H](C)NC(=O)[C@H](CCC(N)=O)NC(=O)[C@H](CCCN)NC(=O)[C@H](CC(=O)O)NC(=O)[C@H](CC(C)C)NC(=O)[C@](C)(CC(C)C)NC(=O)[C@@H](NC(=O)[C@H](CO)NC(=O)[C@H](Cc1ccncc1)NC(=O)[C@H](CC(=O)O)NC(=O)[C@H](CO)NC(=O)[C@@H](NC(=O)[C@](C)(Cc1ccccc1F)NC(=O)[C@@H](NC(=O)CNC(=O)[C@H](CCC(=O)O)NC(=O)C(C)(C)NC(=O)[C@@H](N)Cc1ccc(O)cc1)[C@@H](C)O)[C@@H](C)O)[C@@H](C)CC)[C@@H](C)CC)C(=O)N[C@@H](CCC(=O)O)C(=O)NCC(=O)NCC(=O)N1CCC[C@H]1C(=O)N[C@@H](CO)C(=O)N[C@@H](CO)C(=O)NCC(=O)N[C@@H](C)C(=O)N1CCC[C@H]1C(=O)N1CCC[C@H]1C(=O)N1CCC[C@H]1C(=O)N[C@@H](CO)C(N)=O [Example 285] (H-Y[Aib]EGT[αMePhe(2-F)]TSD[4Pal]SI[αMeL]LD[Orn]QAQ[Aib]EFI[dE][αMeY]LIEGGPSSGAPPPS-NH2)
EC50 [3]: 0.072 nM | EC50 [4]: 0.0884 nM

CC[C@H](C)[C@H](NC(=O)[C@H](CC(C)C)NC(=O)[C@](C)(Cc1ccc(O)cc1)NC(=O)[C@@H](CCC(=O)O)NC(=O)[C@@H](NC(=O)[C@H](Cc1ccccc1)NC(=O)[C@H](CCC(=O)O)NC(=O)C(C)(C)NC(=O)[C@H](CCC(N)=O)NC(=O)[C@H](C)NC(=O)[C@H](CCCCN)NC(=O)[C@H](CCCN)NC(=O)[C@H](CC(=O)O)NC(=O)[C@H](CC(C)C)NC(=O)[C@](C)(CC(C)C)NC(=O)[C@@H](NC(=O)[C@H](CO)NC(=O)[C@H](Cc1ccncc1)NC(=O)[C@H](CC(=O)O)NC(=O)[C@H](CO)NC(=O)[C@@H](NC(=O)[C@](C)(Cc1ccccc1F)NC(=O)[C@@H](NC(=O)CNC(=O)[C@H](CCC(=O)O)NC(=O)C(C)(C)NC(=O)[C@@H](N)Cc1ccc(O)cc1)[C@@H](C)O)[C@@H](C)O)[C@@H](C)CC)[C@@H](C)CC)C(=O)N[C@@H](CCC(=O)O)C(=O)NCC(=O)NCC(=O)N1CCC[C@H]1C(=O)N[C@@H](CO)C(=O)N[C@@H](CO)C(=O)NCC(=O)N[C@@H](C)C(=O)N1CCC[C@H]1C(=O)N1CCC[C@H]1C(=O)N1CCC[C@H]1C(=O)N[C@@H](CO)C(=O)N[C@@H](CS)C(N)=O [Example 286] (H-Y[Aib]EGT[αMePhe(2-F)]TSD[4Pal]SI[αMeL]LD[Orn]KAQ[Aib]EFI[dE][αMeY]LIEGGPSSGAPPPSC-NH2)
EC50 [3]: 0.0602 nM | EC50 [4]: 0.184 nM

CC[C@H](C)[C@H](NC(=O)[C@H](CC(C)C)NC(=O)[C@](C)(Cc1ccc(O)cc1)NC(=O)[C@@H](CCC(=O)O)NC(=O)[C@@H](NC(=O)[C@H](Cc1ccccc1)NC(=O)[C@H](CCC(=O)O)NC(=O)C(C)(C)NC(=O)[C@H](CCC(N)=O)NC(=O)[C@H](C)NC(=O)[C@H](CCC(N)=O)NC(=O)[C@H](CCCN)NC(=O)[C@H](CC(=O)O)NC(=O)[C@H](CC(C)C)NC(=O)[C@](C)(CC(C)C)NC(=O)[C@@H](NC(=O)[C@H](CO)NC(=O)[C@H](Cc1ccncc1)NC(=O)[C@H](CC(=O)O)NC(=O)[C@H](CO)NC(=O)[C@@H](NC(=O)[C@](C)(Cc1ccccc1F)NC(=O)[C@@H](NC(=O)CNC(=O)[C@H](CCC(=O)O)NC(=O)C(C)(C)NC(=O)[C@@H](N)Cc1ccc(O)cc1)[C@@H](C)O)[C@@H](C)O)[C@@H](C)CC)[C@@H](C)CC)C(=O)N[C@@H](CCC(=O)O)C(=O)NCC(=O)NCC(=O)N1CCC[C@H]1C(=O)N[C@@H](CO)C(=O)N[C@@H](CO)C(=O)NCC(=O)N[C@@H](C)C(=O)N1CCC[C@H]1C(=O)N1CCC[C@H]1C(=O)N1CCC[C@H]1C(=O)N[C@@H](CO)C(=O)N[C@@H](CS)C(N)=O [Example 287] (H-Y[Aib]EGT[αMePhe(2-F)]TSD[4Pal]SI[αMeL]LD[Orn]QAQ[Aib]EFI[dE][αMeY]LIEGGPSSGAPPPSC-NH2)
EC50 [3]: 0.112 nM | EC50 [4]: 0.15 nM
